The assay addresses T1, human Cystic Fibrosis Transmembrane Conductance Regulator (CFTR) harboring the ΔF508 mutation (Homo sapiens, UniProt P13569, DEL508-508).
T1 construct: expressed in transfected cells; host or cells: H441 carcinoma line (G418-selected)
Nature of the assay: H441 cell ΔF508-CFTR-HRP cell surface assay (Emax and EC50). The conditions noted are these: for Emax: NCI-H441, NA = Not active. It counts as cell-based. The method, boiled down:
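H441 and 41o- bronchial epithelial cells expressing ΔF508-CFTR with an extracellular-loop-4 HRP tag were treated with a 15-point compound series (24.5–0.001 μM) for two nights, H441 at 27° C, 41o- at 37° C with 0.0005 mg/ml doxycycline. Surface HRP luminescence read; % of maximum VX809 signal and EC50 derived.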

Structures are written as SMILES. pEC50: −log10 of the molar value.

Among the data in patent publication US12630498B2 (Genzyme Corporation, priority 2019, dated 2026) are EC50 and Emax values, retold here.

Broadly, the pEC50 is the EC50 on a negative log10 scale, so that one unit is a factor of ten. Higher therefore signals a low EC50. The term Emax denotes the greatest response seen or fitted, relative to the assay's reference.

T1 sequence (P13569 with tags, fused parts or gaps DEL508-508): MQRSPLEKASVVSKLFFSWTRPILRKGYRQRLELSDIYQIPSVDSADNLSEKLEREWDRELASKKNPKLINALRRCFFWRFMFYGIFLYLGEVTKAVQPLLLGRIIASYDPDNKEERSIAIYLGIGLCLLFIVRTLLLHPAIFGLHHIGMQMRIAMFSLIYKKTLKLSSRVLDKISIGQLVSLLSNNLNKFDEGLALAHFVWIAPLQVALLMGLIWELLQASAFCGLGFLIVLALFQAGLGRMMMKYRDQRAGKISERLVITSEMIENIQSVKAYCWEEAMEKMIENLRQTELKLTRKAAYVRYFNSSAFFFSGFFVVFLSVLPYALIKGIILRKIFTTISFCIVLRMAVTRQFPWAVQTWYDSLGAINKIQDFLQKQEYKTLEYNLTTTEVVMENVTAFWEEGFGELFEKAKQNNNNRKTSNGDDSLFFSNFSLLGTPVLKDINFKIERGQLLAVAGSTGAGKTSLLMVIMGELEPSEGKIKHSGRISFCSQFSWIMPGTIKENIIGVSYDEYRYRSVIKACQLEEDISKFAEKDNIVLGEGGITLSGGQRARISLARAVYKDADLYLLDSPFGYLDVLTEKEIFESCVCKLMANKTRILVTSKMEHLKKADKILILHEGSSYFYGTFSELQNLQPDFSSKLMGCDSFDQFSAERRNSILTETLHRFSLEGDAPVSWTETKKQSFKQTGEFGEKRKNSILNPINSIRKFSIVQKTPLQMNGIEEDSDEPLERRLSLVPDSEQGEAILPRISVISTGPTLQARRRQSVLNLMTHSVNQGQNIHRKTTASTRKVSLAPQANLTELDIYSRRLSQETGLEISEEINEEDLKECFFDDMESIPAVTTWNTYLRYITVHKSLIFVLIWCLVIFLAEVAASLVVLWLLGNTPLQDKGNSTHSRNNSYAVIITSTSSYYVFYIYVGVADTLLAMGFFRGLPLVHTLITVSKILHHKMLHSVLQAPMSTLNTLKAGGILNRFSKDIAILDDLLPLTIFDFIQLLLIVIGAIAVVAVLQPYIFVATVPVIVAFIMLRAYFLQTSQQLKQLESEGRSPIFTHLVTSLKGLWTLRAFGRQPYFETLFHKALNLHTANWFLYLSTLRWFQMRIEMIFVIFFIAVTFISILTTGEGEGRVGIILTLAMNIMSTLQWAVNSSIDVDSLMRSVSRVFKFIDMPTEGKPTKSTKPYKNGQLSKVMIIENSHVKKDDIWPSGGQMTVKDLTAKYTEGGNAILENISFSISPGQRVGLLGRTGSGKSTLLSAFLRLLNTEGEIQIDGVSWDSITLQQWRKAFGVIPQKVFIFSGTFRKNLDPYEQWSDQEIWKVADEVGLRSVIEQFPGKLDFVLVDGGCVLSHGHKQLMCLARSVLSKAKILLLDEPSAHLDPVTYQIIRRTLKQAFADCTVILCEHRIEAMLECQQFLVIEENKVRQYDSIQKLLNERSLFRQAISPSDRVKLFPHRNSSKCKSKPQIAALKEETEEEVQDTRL

As for `COc1ccc2c(OCc3ccc(C(F)(F)F)cc3)c(C(=O)N[C@H](C(=O)O)C3CCCC3)ccc2c1` [Example 160, (S)-2-cyclopentyl-2-(6-methoxy-1-((4-(trifluoromethyl)benzyl)oxy)-2-naphthamido)acetic Acid], the pEC50 was 5.48 and the Emax came out at 47.2%.
For `COc1ccc2c(OCc3ccc(C(F)(F)F)cc3)c(C(=O)N[C@@H](CC(C)(C)C)C(=O)O)ccc2c1` [Example 161, (S)-2-(6-methoxy-1-((4-(trifluoromethyl)benzyl)oxy)-2-naphthamido)-4,4-dimethylpentanoic Acid], in that order: 5.49 and 47.7%.
With `COc1ccc2c(OCc3ccc(SC(F)(F)F)cc3)c(C(=O)N[C@H](C(=O)O)C3CCCC3)ccc2c1` [Example 162, (S)-2-cyclopentyl-2-(6-methoxy-1-((4-((trifluoromethyl)thio)benzyl)oxy)-2-naphthamido)acetic Acid], the pEC50 was 5.80 and the maximum response (Emax) was determined as 26%.
Compound `CC(C)(SCC1CC1(F)F)[C@H](NC(=O)c1ccc2ccccc2c1OCc1ccc(S(C)(=O)=O)cc1)C(=O)O` (stereo partly drawn) [Example 166, (2R)-3-(((2,2-difluorocyclopropyl)methyl)thio)-3-methyl-2-(1-((4-(methylsulfonyl)benzyl)oxy)-2-naphthamido)butanoic Acid] displayed an Emax of 6.6%.
`CC(C)(SC1CCCC1)[C@H](NC(=O)c1ccc2ccccc2c1OCc1ccc(S(C)(=O)=O)cc1)C(=O)O` [Example 171] yielded a maximum response (Emax) of 16.4%.
As for `CC(C)(S[C@@H]1C[C@@H]2CC[C@H]1C2)[C@H](NC(=O)c1ccc2ccccc2c1OCc1ccc(S(C)(=O)=O)cc1)C(=O)O` [Example 176, (R)-3-(((1S,2R,4R)-bicyclo[2.2.1]heptan-2-yl)thio)-3-methyl-2-(1-((4-(methylsulfonyl)benzyl)oxy)-2-naphthamido)butanoic Acid], the Emax was 38.4%.
`CC(C)(C)C[C@H](NC(=O)c1ccc2ccccc2c1OC[C@H]1CC[C@@H](C(F)(F)F)CC1)C(=O)O` [Example 180, (S)-4,4-dimethyl-2-(1-(((1s,4R)-4-(trifluoromethyl)cyclohexyl)methoxy)-2-naphthamido)pentanoic Acid] had a pEC50 of 5.00 and an Emax of 70.7%.
As for `O=C(NC(C(=O)O)C(C(F)(F)F)C(F)(F)F)c1ccc2ccccc2c1OCc1ccc(C(F)(F)F)cc1` (stereo not shown) [Example 181, 4,4,4-trifluoro-3-(trifluoromethyl)-2-(1-((4-(trifluoromethyl)benzyl)oxy)-2-naphthamido)butanoic Acid], the pEC50 was 4.86 and the maximal response (Emax) is 93.2%.
In turn, `O=C(NC(C(=O)O)C(C(F)(F)F)C(F)(F)F)c1ccc2cc(F)ccc2c1OCc1ccc(C(F)(F)F)cc1` (stereo not shown) [Example 182, 4,4,4-trifluoro-2-(6-fluoro-1-((4-(trifluoromethyl)benzyl)oxy)-2-naphthamido)-3-(trifluoromethyl)butanoic Acid] had a pEC50 of 5.40 and an Emax of 31.4%.
The compound `O=C(NC(C(=O)O)C(C(F)(F)F)C(F)(F)F)c1ccc2ccccc2c1OCC1CCCCC1` (stereo not shown) [Example 183, 2-(1-(cyclohexylmethoxy)-2-naphthamido)-4,4,4-trifluoro-3-(trifluoromethyl)butanoic Acid] showed a pEC50 of 5.49 and an Emax of 63.9%.
`NC12CCC(C(NC(=O)c3ccc4cc(F)ccc4c3OCc3ccc(OC(F)(F)F)cc3)C(=O)O)(CC1)CC2` (stereo not shown) [Example 184, 2-(4-aminobicyclo[2.2.2]octan-1-yl)-2-(6-fluoro-1-((4-(trifluoromethoxy)benzyl)oxy)-2-naphthamido)acetic Acid] registered a maximal response (Emax) of 11.7%.
In the case of `NC12CCC(C(NC(=O)c3ccc4cc(F)ccc4c3OCc3ccc(C(F)(F)F)cc3)C(=O)O)(CC1)CC2` (stereo not shown) [Example 185, 2-(4-aminobicyclo[2.2.2]octan-1-yl)-2-(6-fluoro-1-((4-(trifluoromethyl)benzyl)oxy)-2-naphthamido)acetic Acid], the Emax is 14%.
Compound `CC(C)(C)C[C@H](NC(=O)c1ccc2cc(N)ccc2c1OCc1ccc(C(F)(F)F)cc1)C(=O)O` [Example 186, (S)-2-(6-amino-1-((4-(trifluoromethyl)benzyl)oxy)-2-naphthamido)-4,4-dimethylpentanoic Acid] had a pEC50 of 5.57 and an Emax of 46.6%.
`Nc1ccc2c(OCc3ccc(C(F)(F)F)cc3)c(C(=O)N[C@H](C(=O)O)C3CCCC3)ccc2c1` [Example 187, (S)-2-(6-amino-1-((4-(trifluoromethyl)benzyl)oxy)-2-naphthamido)-2-cyclopentylacetic Acid]: the negative logarithm of the EC50 (pEC50) was 4.94 and the Emax worked out at 70.8%.
As for `O=C(N[C@@H](Cc1ccc(C(F)(F)F)cc1)C(=O)O)c1ccc2ccccc2c1OCc1ccc(OC(F)(F)F)cc1` [Example 190, (S)-2-(1-((4-(trifluoromethoxy)benzyl)oxy)-2-naphthamido)-3-(4-(trifluoromethyl)phenyl)propanoic Acid], the pEC50 was 5.15 and the Emax amounted to 17.9%.
On the same counts, the results for `O=C(N[C@@H](Cc1ccc(C(F)(F)F)cc1)C(=O)O)c1ccc2ccccc2c1OCC1CCCCC1` [Example 200, (S)-2-(1-(cyclohexylmethoxy)-2-naphthamido)-3-(4-(trifluoromethyl)phenyl)propanoic Acid] are 4.69 and 65.4%.
In the case of `O=C(N[C@@H](Cc1ccc(C(F)(F)F)cc1)C(=O)O)c1ccc2cc(F)ccc2c1OCC1CCCCC1` [Example 204, (S)-2-(1-(cyclohexylmethoxy)-6-fluoro-2-naphthamido)-3-(4-(trifluoromethyl)phenyl)propanoic Acid], the Emax came to 6.8%.
In turn, `O=C(N[C@H](C(=O)O)C(c1ccccc1)c1ccccc1)c1ccc2ccccc2c1OCc1ccc(Cl)c(Cl)c1` [Example 207, (S)-2-(1-((3,4-dichlorobenzyl)oxy)-2-naphthamido)-3,3-diphenylpropanoic Acid] gave a pEC50 of 4.69 and an Emax of 40.4%.
As to `O=C(N[C@H](C(=O)O)C(c1ccccc1)c1ccccc1)c1ccc2cc(F)ccc2c1OCc1ccc(Cl)c(Cl)c1` [Example 209, (S)-2-(1-((3,4-dichlorobenzyl)oxy)-6-fluoro-2-naphthamido)-3,3-diphenylpropanoic Acid], the negative logarithm of the EC50 (pEC50) was 6.40 and the Emax turned out to be 71%.
`O=C(N[C@@H](Cc1ccc(C(F)(F)F)cc1)C(=O)O)c1ccc2ccccc2c1OCc1nc2ccccc2s1` [Example 213, (S)-2-(1-(benzo[d]thiazol-2-ylmethoxy)-2-naphthamido)-3-(4-(trifluoromethyl)phenyl)propanoic Acid] showed a pEC50 of 4.88 and a maximal effect (Emax) of 87.2%.
For `CC(C)C#CCOc1c(C(=O)N[C@H](C(=O)O)C(C)(C)C)ccc2cc(F)ccc12` [Example 224, (2S)-2-[[6-fluoro-1-(4-methylpent-2-ynoxy)naphthalene-2-carbonyl]amino]-3,3-dimethyl-butanoic Acid], the pEC50 is 4.89 and the Emax stood at 119%.
In turn, `Cc1ccc2ccc(C(=O)N[C@H](C(=O)O)C3(C)CC3)c(OCc3ccc(C(F)(F)F)cc3)c2c1` [Example 229, (2S)-2-(1-methylcyclopropyl)-2-[[7-methyl-1-[[4-(trifluoromethyl)phenyl]methoxy]naphthalene-2-carbonyl]amino]acetic Acid] gave a pEC50 of 5.74 and an Emax of 177%.
As to `CC(C)(C)[C@H](NC(=O)c1ccc2ccccc2c1OCc1ccncc1)C(=O)O` [Example 232, (2S)-3,3-dimethyl-2-[[1-(4-pyridylmethoxy)naphthalene-2-carbonyl]amino]butanoic Acid], the pEC50 was 5.51 and the maximum response (Emax) worked out at 8.5%.
On the same counts, the results for `CC(C)C#CCOc1c(C(=O)N[C@H](C(=O)O)C(C)(C)C)ccc2ccccc12` [Example 235, (2S)-3,3-dimethyl-2-[[1-(4-methylpent-2-ynoxy)naphthalene-2-carbonyl]amino]butanoic Acid] are 4.82 and 211%.
As for `CC(C)(C)C#CCOc1c(C(=O)N[C@H](C(=O)O)C(C)(C)C)ccc2cc(F)ccc12` [Example 266, (2S)-2-[[1-(4,4-dimethylpent-2-ynoxy)-6-fluoro-naphthalene-2-carbonyl]amino]-3,3-dimethyl-butanoic Acid], the pEC50 was 5.27 and the maximal effect (Emax) came out at 149%.
`CC(C)(C)C#CCOc1c(C(=O)N[C@H](C(=O)O)C(C)(C)C)ccc2ccccc12` [Example 267, (2S)-2-[[1-(4,4-dimethylpent-2-ynoxy)naphthalene-2-carbonyl]amino]-3,3-dimethyl-butanoic Acid] showed a negative-log EC50 (pEC50) of 5.47 and a maximum response (Emax) of 288%.
On the same counts, the results for `CC(C)(C)[C@H](NC(=O)c1ccc2ccccc2c1OCC1(C(F)(F)F)CC1)C(=O)O` [Example 268, (2S)-3,3-dimethyl-2-[[1-[[1-(trifluoromethyl)cyclopropyl]methoxy]naphthalene-2-carbonyl]amino]butanoic Acid] are 4.81 and 74%.
For the compound `CC(C)(C)[C@H](NC(=O)c1ccc2ccccc2c1OCC#CC1CC1)C(=O)O` [Example 270, (2S)-2-[[1-(3-cyclopropylprop-2-ynoxy)naphthalene-2-carbonyl]amino]-3,3-dimethyl-butanoic Acid], the negative-log EC50 (pEC50) was 4.91 and the Emax turned out to be 166%.
On the same counts, the results for `Cc1cc(F)c2ccc(C(=O)N[C@H](C(=O)O)C(C)(C)C)c(OCc3ccc(OC(F)(F)F)cc3)c2c1` [Example 271, (2S)-2-[[5-fluoro-7-methyl-1-[[4-(trifluoromethoxy)phenyl]methoxy]naphthalene-2-carbonyl]amino]-3,3-dimethyl-butanoic Acid] are 6.70 and 261%.
